This note sets out measurements from patent publication US5747466A, “3-deoxy-3-descladinose derivatives of erythromycins A and B” (Abbott Laboratories, priority 1996, dated 1998).

Bounds are passed on as bounds.

Common to all, as to experiment: In vitro antibacterial activity (MIC), agar dilution
What all share (assay type): cell-based

For test [1], the system named is STREPTOCOCCUS PYOGENES 930. The note with it: S. pyogenes 930; BHI agar, 35-37 °C, 20-24 h.
For test [2], the system named is STREPTOCOCCUS PYOGENES EES61. The following applies: S. pyogenes EES61; BHI agar, 35-37 °C, 20-24 h.
Test [3] has as its system NOCARDIA ARSTEROIDES ATCC 9970. The note with it: Nocardia ATCC 9970; BHI agar, 35-37 °C, 20-24 h.
The next test has as its system CANDIDA ALBICANS CCH 442. The note with it: C. albicans CCH 442; BHI agar, 35-37 °C, 20-24 h.
In test [4] the test system is ENTEROBACTER AEROGENES ATCC 13048. The note with it: E. aerogenes ATCC 13048; BHI agar, 35-37 °C, 20-24 h.
Another test deals with PSEUDOMONAS CEPACIA 296I. The following applies: P. cepacia 296I; BHI agar, 35-37 °C, 20-24 h.
In test [5] the test system is STAPHYLOCOCCUS AUREUS 1775. The following applies: S. aureus 1775; BHI agar, 35-37 °C, 20-24 h.
In test [6] the test system is STAPHYLOCOCCUS AUREUS ATCC 6538P. The following applies: S. aureus ATCC 6538P; BHI agar, 35-37 °C, 20-24 h.
In test [7] the test system is STREPTOCOCCUS BOVIS A-5169. The note with it: S. bovis A-5169; BHI agar, 35-37 °C, 20-24 h.

As for `CC[C@H]1OC(=O)[C@H](C)[C@@H](O[C@H]2C[C@@](C)(OC)[C@@H](O)[C@H](C)O2)[C@H](C)[C@@H](O[C@@H]2O[C@H](C)C[C@H](N(C)C)[C@H]2O)[C@](C)(O)C[C@@H](C)C(=O)[C@H](C)[C@@H](O)[C@]1(C)O` [Ery A, Erythromycin A, reference compound], the “minimum inhibitory concentration (MIC)” value in test [1] is above 100; in test [2], 0.02; in test [3] it was 0.05; in the test on CANDIDA ALBICANS CCH 442 it was above 100; in test [4] it was above 100; in the test with PSEUDOMONAS CEPACIA 296I, above 100. The “minimum inhibitory concentration (MIC)” value in [5] is on record as above 100; in test [6], 0.1; in test [7] it was 0.02.
In the case of `CC[C@H]1OC(=O)[C@H](C)C[C@H](C)[C@@H](O[C@@H]2O[C@H](C)C[C@H](N(C)C)[C@H]2O)[C@](C)(OC)C[C@@H](C)C(=O)[C@H](C)[C@@H](O)[C@]1(C)O` [Ex. 1], the “minimum inhibitory concentration (MIC)” value in test [1] was above 100; in [2], 1.56; in [3], 1.56; in the test on CANDIDA ALBICANS CCH 442 it was above 100; in test [4], above 100; with PSEUDOMONAS CEPACIA 296I, above 100. Further, the “minimum inhibitory concentration (MIC)” value is above 100 in [5], 25 in [6] and 0.78 in test [7].
For `CC[C@H]1OC(=O)[C@H](C)C[C@H](C)[C@@H](O[C@@H]2O[C@H](C)C[C@H](N(C)C)[C@H]2O)[C@](C)(OC)C[C@@H](C)C(=NO)[C@H](C)[C@@H](O)[C@]1(C)O` [Ex. 2], the “minimum inhibitory concentration (MIC)” value is on record as above 100 in test [1]; 0.78 in test [2]; 0.02 in [3]; above 100 in the test on CANDIDA ALBICANS CCH 442; above 100 in test [4]; above 100 in the test with PSEUDOMONAS CEPACIA 296I. The “minimum inhibitory concentration (MIC)” value is above 100 in [5] and 0.78 in [7].
As for `CC[C@H]1OC(=O)[C@H](C)C[C@H](C)[C@@H](O[C@@H]2O[C@H](C)C[C@H](N(C)C)[C@H]2O)[C@](C)(OC)C[C@@H](C)C(=O)[C@H](C)[C@H]2OC(=O)O[C@@]21C` [Ex. 3], the “minimum inhibitory concentration (MIC)” value in test [1] was above 100; in [2] it was 0.2; in test [3], 0.2; in the test with CANDIDA ALBICANS CCH 442 it was above 100; in test [4] it was above 100; in the test with PSEUDOMONAS CEPACIA 296I, above 100. The figures for the “minimum inhibitory concentration (MIC)” value in [5], in test [6] and in test [7] were above 100, 6.2 and 0.2, respectively.
With `CC[C@H]1OC(=O)[C@H](C)C[C@H](C)[C@@H](O[C@@H]2O[C@H](C)C[C@H](N(C)C)[C@H]2O)[C@](C)(OC)C[C@@H](C)C(=O)[C@H](C)[C@H]2N(CCCCc3ccccc3)C(=O)O[C@]12C` [Ex. 4], the “minimum inhibitory concentration (MIC)” value in test [1] is 6.2; in test [2] it was 0.05; in test [3], 3.1; in the test on CANDIDA ALBICANS CCH 442, 100; in [4], above 100; in test [5], 50. In addition, the results for the “minimum inhibitory concentration (MIC)” value in test [6] and in test [7] were 1.56 and 0.02, respectively.
For the compound `CC[C@H]1OC(=O)[C@H](C)C[C@H](C)[C@@H](O[C@@H]2O[C@H](C)C[C@H](N(C)C)[C@H]2O)[C@](C)(OC)C[C@@H](C)C(=O)[C@H](C)[C@H]2N(CCc3ccc(Oc4ccccc4)cc3)C(=O)O[C@]12C` [Ex. 5], the “minimum inhibitory concentration (MIC)” value in test [1] is 6.2; in test [2] it was 1.56; in [3] it was 3.1; with CANDIDA ALBICANS CCH 442, 100; in [4] it was above 100; with PSEUDOMONAS CEPACIA 296I it was 100. For the same compound, the “minimum inhibitory concentration (MIC)” value turned out to be 25 in test [5], 12.5 in test [6] and 1.56 in test [7].
Turning to `CC[C@H]1OC(=O)[C@H](C)C[C@H](C)[C@@H](O[C@@H]2O[C@H](C)C[C@H](N(C)C)[C@H]2O)[C@](C)(OC)C[C@@H](C)C(=NOC)[C@H](C)[C@@H](O)[C@]1(C)O` [Ex. 6], the “minimum inhibitory concentration (MIC)” value in test [1] is reported as above 100; in test [2] it was 0.39; in test [3] it was 0.78; with CANDIDA ALBICANS CCH 442 it was above 100; in test [4], above 100; in the test on PSEUDOMONAS CEPACIA 296I, 12.5. Moreover, the “minimum inhibitory concentration (MIC)” value was above 100 in test [5], 6.2 in [6] and 0.39 in test [7].
On to `CC[C@H]1OC(=O)[C@H](C)C[C@H](C)[C@@H](O[C@@H]2O[C@H](C)C[C@H](N(C)C)[C@H]2O)[C@](C)(OC)C[C@@H](C)C(=NOCOCCOC)[C@H](C)[C@@H](O)[C@]1(C)O` [Ex. 8], for which the “minimum inhibitory concentration (MIC)” value is above 100 in test [1]; 0.02 in test [2]; 0.05 in [3]; above 100 with CANDIDA ALBICANS CCH 442; above 100 in test [4]; above 100 with PSEUDOMONAS CEPACIA 296I. Further, the “minimum inhibitory concentration (MIC)” value in test [5] is given as above 100; in test [6] it was 0.1; in [7], 0.02.
